Assay results published in ChEMBL document CHEMBL1201862, “PubChem BioAssay data set” (2004).
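Following 48 hours of exposure in 96-well plates, responses at five concentrations were used to interpolate endpoints linearly. Abbreviation: GI50, concentration required for 50% inhibition of growth.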 Activity calls are given as the source filed them. Cut-off read from the data, not from the text of the source: active = GI50 up to about 1.1 µM and inactive = higher.

Columns and labels:
Experiment in all cases: DTP human tumour cell line panel, 48 h
[1] = test system: HL-60
[2] = test system: OVCAR-3
[3] = test system: 786-0
[4] = test system: TK-10
[5] = test system: EKVX
[6] = test system: MDA-MB-435
[7] = test system: Malme-3M
[8] = test system: HOP-62
[9] = test system: A498
[10] = test system: UO-31
[11] = test system: NCI/ADR-RES
[12] = test system: SR
[13] = test system: SW-620
[14] = test system: K562
[15] = test system: SF-295
[16] = test system: HT-29
[17] = test system: U-251
[18] = test system: MOLT-4
[19] = test system: KM12
[20] = test system: LOX IMVI
[21] = test system: IGROV-1
[22] = test system: M14
[23] = test system: HCC 2998
[24] = test system: MCF7
[25] = test system: A549
[26] = test system: BT-549
[27] = test system: OVCAR-5
[28] = test system: UACC-257
[29] = test system: SK-OV-3
[30] = test system: SK-MEL-5
[31] = test system: HCT-15
[32] = test system: MDA-MB-231
[33] = test system: HOP-92
[34] = test system: SNB-19
[35] = test system: RPMI-8226
[36] = test system: PC-3
[37] = test system: NCI-H226
[38] = test system: OVCAR-8
[39] = test system: NCI-H522
[40] = test system: OVCAR-4
[41] = test system: ACHN
[42] = test system: SK-MEL-2
[43] = test system: NCI-H23
[44] = test system: CAKI-1
[45] = test system: SF-539
[46] = test system: NCI-H460
[47] = test system: UACC-62
[48] = test system: SN12C
[49] = test system: HCT-116
[50] = test system: MDA-N
[51] = test system: DU-145
[52] = test system: RXF 393
[53] = test system: COLO 205
[54] = test system: T47D
[55] = test system: SK-MEL-28
[56] = test system: SNB-75
[57] = test system: SF-268

N[C@H]1CCN(c2c(F)cc3c(=O)c(C(=O)O)cn4c3c2Oc2cc3c(ccc5ccccc53)cc2-4)C1
GI50 [1]: 3.79 µM (inactive) | GI50 [2]: 4.48 µM (inactive) | GI50 [3]: 2.88 µM (inactive) | GI50 [4]: 4.44 µM (inactive) | GI50 [5]: 3.65 µM (inactive) | GI50 [6]: 3.88 µM (inactive) | GI50 [7]: 4.43 µM (inactive) | GI50 [8]: 4.06 µM (inactive) | GI50 [9]: 3.56 µM (inactive) | GI50 [10]: 4.79 µM (inactive) | GI50 [11]: 8.17 µM (inactive) | GI50 [12]: 2.52 µM (inactive) | GI50 [13]: 3.27 µM (inactive) | GI50 [14]: 2.82 µM (inactive) | GI50 [15]: 2.98 µM (inactive) | GI50 [16]: 3.08 µM (inactive) | GI50 [17]: 1.39 µM (inactive) | GI50 [18]: 1.45 µM (inactive) | GI50 [19]: 3.49 µM (inactive) | GI50 [20]: 3.08 µM (inactive) | GI50 [21]: 2.59 µM (inactive) | GI50 [22]: 4.68 µM (inactive) | GI50 [23]: 1.99 µM (inactive) | GI50 [24]: 2.63 µM (inactive) | GI50 [25]: 3.87 µM (inactive) | GI50 [26]: 6.46 µM (inactive) | GI50 [27]: 11 µM (inactive) | GI50 [28]: 4.9 µM (inactive) | GI50 [29]: 5.61 µM (inactive) | GI50 [30]: 1.87 µM (inactive) | GI50 [31]: 3.98 µM | GI50 [32]: 0.014 µM (active) | GI50 [33]: 2.59 µM (inactive) | GI50 [34]: 5.81 µM (inactive) | GI50 [35]: 1.58 µM (inactive) | GI50 [36]: 2.17 µM (inactive) | GI50 [37]: 2.58 µM (inactive) | GI50 [38]: 2.96 µM (inactive) | GI50 [39]: 4 µM (inactive) | GI50 [40]: 5.25 µM (inactive) | GI50 [41]: 2.32 µM (inactive) | GI50 [42]: 2.96 µM (inactive) | GI50 [43]: 4.83 µM (inactive) | GI50 [44]: 3.6 µM (inactive) | GI50 [45]: 1.7 µM (inactive) | GI50 [46]: 1.94 µM (inactive) | GI50 [47]: 6.14 µM (inactive) | GI50 [48]: 3.23 µM (inactive) | GI50 [49]: 2.87 µM (inactive) | GI50 [50]: 3.03 µM (inactive) | GI50 [51]: 4.05 µM (inactive) | GI50 [52]: 6.41 µM (inactive) | GI50 [53]: 2.75 µM (inactive)

NC(=O)/N=C(\N)NC(=O)c1ccccc1
GI50 [1]: > 100 µM (inactive) | GI50 [2]: > 100 µM (inactive) | GI50 [3]: > 100 µM (inactive) | GI50 [4]: > 100 µM (inactive) | GI50 [5]: > 100 µM (inactive) | GI50 [6]: > 100 µM (inactive) | GI50 [7]: > 100 µM (inactive) | GI50 [8]: > 100 µM (inactive) | GI50 [9]: > 100 µM (inactive) | GI50 [10]: > 100 µM (inactive) | GI50 [11]: > 100 µM (inactive) | GI50 [54]: > 100 µM (inactive) | GI50 [12]: > 100 µM (inactive) | GI50 [13]: > 100 µM (inactive) | GI50 [14]: > 100 µM (inactive) | GI50 [15]: > 100 µM (inactive) | GI50 [16]: > 100 µM (inactive) | GI50 [17]: > 100 µM (inactive) | GI50 [18]: > 100 µM (inactive) | GI50 [19]: > 100 µM (inactive) | GI50 [20]: > 100 µM (inactive) | GI50 [21]: > 100 µM (inactive) | GI50 [22]: > 100 µM (inactive) | GI50 [23]: > 100 µM (inactive) | GI50 [25]: > 100 µM (inactive) | GI50 [26]: > 100 µM (inactive) | GI50 [27]: > 100 µM (inactive) | GI50 [28]: > 100 µM (inactive) | GI50 [55]: > 100 µM (inactive) | GI50 [30]: > 100 µM (inactive) | GI50 [31]: > 100 µM | GI50 [32]: > 100 µM (inactive) | GI50 [33]: > 100 µM (inactive) | GI50 [34]: > 100 µM (inactive) | GI50 [36]: > 100 µM (inactive) | GI50 [37]: > 100 µM (inactive) | GI50 [38]: > 100 µM (inactive) | GI50 [39]: > 100 µM (inactive) | GI50 [41]: > 100 µM (inactive) | GI50 [42]: > 100 µM (inactive) | GI50 [43]: > 100 µM (inactive) | GI50 [44]: > 100 µM (inactive) | GI50 [46]: > 100 µM (inactive) | GI50 [47]: > 100 µM (inactive) | GI50 [48]: > 100 µM (inactive) | GI50 [49]: > 100 µM (inactive) | GI50 [50]: > 100 µM (inactive) | GI50 [51]: > 100 µM (inactive) | GI50 [52]: > 100 µM (inactive)

Cc1cnc(Cl)nc1C(C#N)c1nc2ccccc2n1C (stereo unspecified)
GI50 [2]: > 100 µM (inactive) | GI50 [3]: 44.4 µM (inactive) | GI50 [4]: 36 µM (inactive) | GI50 [5]: 6.31 µM (inactive) | GI50 [6]: > 100 µM (inactive) | GI50 [7]: > 100 µM (inactive) | GI50 [8]: 55.7 µM (inactive) | GI50 [9]: > 100 µM (inactive) | GI50 [10]: > 100 µM (inactive) | GI50 [11]: 56.1 µM (inactive) | GI50 [54]: 84.9 µM (inactive) | GI50 [13]: > 100 µM (inactive) | GI50 [15]: > 100 µM (inactive) | GI50 [16]: 35.9 µM (inactive) | GI50 [17]: 19.5 µM (inactive) | GI50 [18]: > 100 µM (inactive) | GI50 [19]: > 100 µM (inactive) | GI50 [20]: 34.1 µM (inactive) | GI50 [21]: 33.4 µM (inactive) | GI50 [22]: > 100 µM (inactive) | GI50 [56]: 10.1 µM (inactive) | GI50 [25]: 62.5 µM (inactive) | GI50 [26]: > 100 µM (inactive) | GI50 [27]: 64.3 µM (inactive) | GI50 [28]: > 100 µM (inactive) | GI50 [29]: > 100 µM (inactive) | GI50 [55]: 93.1 µM (inactive) | GI50 [30]: > 100 µM (inactive) | GI50 [31]: > 100 µM | GI50 [32]: > 100 µM (inactive) | GI50 [33]: > 100 µM (inactive) | GI50 [34]: 41.6 µM (inactive) | GI50 [35]: 85.9 µM (inactive) | GI50 [37]: > 100 µM (inactive) | GI50 [38]: 38.6 µM (inactive) | GI50 [39]: 15.1 µM (inactive) | GI50 [40]: 49.1 µM (inactive) | GI50 [41]: 66.8 µM (inactive) | GI50 [43]: 66.7 µM (inactive) | GI50 [44]: 95.3 µM (inactive) | GI50 [45]: 31 µM (inactive) | GI50 [46]: 46.1 µM (inactive) | GI50 [48]: > 100 µM (inactive) | GI50 [49]: 23.2 µM (inactive) | GI50 [50]: > 100 µM (inactive) | GI50 [51]: > 100 µM (inactive) | GI50 [52]: 58.9 µM (inactive) | GI50 [53]: > 100 µM (inactive) | GI50 [57]: 29.9 µM (inactive)
